From ChEMBL document CHEMBL1799975 (J Med Chem, 2011)

Legend:
[1] = Lipophilicity, log D of the compound at pH 7.4 by HPLC analysis; type: physicochemical; conditions: buffer
[2] = Ratio of drug level in brain to plasma of rat at 0.2 mg/kg, iv after 30 mins by LC-MS-MS analysis; type: ADME, organism-based; parameters: dose 0.2 mg/kg, route intravenous; conditions: read-out: BPR
[3] = Cmax in rat at 0.1 mg/kg, iv by LC-MS-MS analysis; type: ADME, organism-based; parameters: dose 0.1 mg/kg, route intravenous; conditions: in vivo
[4] = Volume of distribution at steady state in rat at 0.1 mg/kg, iv by LC-MS-MS analysis; type: ADME, organism-based; parameters: dose 0.1 mg/kg, route intravenous; conditions: in vivo, read-out: Vdss
[5] = Mean residence time in rat at 0.1 mg/kg, po by LC-MS-MS analysis; type: ADME, organism-based; parameters: dose 0.1 mg/kg, route oral; conditions: in vivo
[6] = Oral bioavailability in rat at 0.1 mg/kg by LC-MS-MS analysis; type: ADME, organism-based; conditions: in vivo
[7] = Drug level in rat brain at 0.2 mg/kg, iv after 15 mins by LC-MS-MS analysis; type: ADME, organism-based; parameters: dose 0.2 mg/kg, route intravenous; conditions: read-out: Drug uptake
[8] = Ratio of drug level in brain to plasma of rat at 0.2 mg/kg, iv after 15 mins by LC-MS-MS analysis; type: ADME, organism-based; parameters: dose 0.2 mg/kg, route intravenous; conditions: read-out: BPR
[9] = AUC in rat at 0.1 mg/kg, po by LC-MS-MS analysis; type: ADME, organism-based; parameters: dose 0.1 mg/kg, route oral; conditions: plasma
[10] = Drug level in rat plasma at 0.2 mg/kg, iv after 30 mins by LC-MS-MS analysis; type: ADME, organism-based; parameters: dose 0.2 mg/kg, route intravenous
[11] = Drug level in rat brain at 0.2 mg/kg, iv after 30 mins by LC-MS-MS analysis; type: ADME, organism-based; parameters: dose 0.2 mg/kg, route intravenous; conditions: read-out: Drug uptake
[12] = Drug level in rat plasma at 0.2 mg/kg, iv after 15 mins by LC-MS-MS analysis; type: ADME, organism-based; parameters: dose 0.2 mg/kg, route intravenous

With CC(=O)NCCC1=C(c2ccccc2)Cc2ccc3c(c21)CCO3 as the compound, how does the logD [1] read?
Its logD is 3.49.

With CC(=O)NCCc1c(-c2ccccc2)nc2ccc3c(n12)CCO3 as the compound, how does the logD [1] read?
The logD was 1.66.

With CC(=O)NCCn1c(-c2ccccc2)nc2ccc3c(c21)CCO3 as the compound, how does the logD [1] read?
The logD was 1.39.

Which logD [1] does the source give for CC(=O)NCCc1c(-c2ccccc2)nn2ccc3c(c12)CCO3 here?
The logD was 2.04.

For CC(=O)NCCc1c(C)nn2ccc3c(c12)CCO3, which logD [1] is on record?
The logD was 1.04.

Which logD [1] does the source give for CCC(=O)NCCc1c(C)nn2ccc3c(c12)CCO3 here?
The logD was 1.39.

With CCc1nn2ccc3c(c2c1CCNC(C)=O)CCO3 as the compound, how does the Kp at 0.5 h [2] read?
Its Kp at 0.5 h is 0.22.

What about the Cmax [3] of the same compound?
Its Cmax is 12.4 ng/mL.

And the logD [1]?
The logD was 1.48.

And the Vd [4]?
Its Vd is 0.664 L/kg.

And the MRT [5]?
Its MRT is 57 min.

What about the bioavailability [6] of the same compound?
The bioavailability was 19.7%.

What about the concentration at […] [7] of the same compound?
The concentration at […] was 23.7 ng/g.

And the Kp at […] [8]?
Its Kp at […] is 0.28.

What about the AUC [9] of the same compound?
The AUC was 14.4 ng·h/mL.

What about the concentration at 0.5 h [10] of the same compound?
The concentration at 0.5 h was 55.9 ng/mL.

What about the concentration at 0.5 h [11] of the same compound?
The concentration at 0.5 h was 12.4 ng/g.

And the concentration at […] [12]?
Its concentration at […] is 83.2 ng/mL.

With CCC(=O)NCCc1c(CC)nn2ccc3c(c12)CCO3 as the compound, how does the logD [1] read?
The logD was 1.71.

Which logD [1] does the source give for CC(=O)NCCc1c(C2CC2)nn2ccc3c(c12)CCO3 here?
Its logD is 1.61.

For CCC(=O)NCCc1c(C2CC2)nn2ccc3c(c12)CCO3, which logD [1] is on record?
The logD was 1.89.

For CC(=O)NCCc1c(C(F)(F)F)nn2ccc3c(c12)CCO3, which logD [1] is on record?
The logD was 1.64.

With CCC(=O)NCCc1c(C(F)(F)F)nn2ccc3c(c12)CCO3 as the compound, how does the logD [1] read?
The logD was 1.94.

With COc1ccc2[nH]cc(CCNC(C)=O)c2c1 [MELATONIN] as the compound, how does the logD [1] read?
Its logD is 0.5.
